One test addresses T1, CNGA2TM:A4 (Rattus norvegicus, UniProt Q00195+Q64359, T539M).
T1 construct: expressed in transfected cells; host or cells: Xenopus laevis oocytes (cRNA injection), excised patches
Put plainly: Ligand binding, confocal patch-clamp fluorometry. Also on record: key: +: ligand binding to the respective modulatory subunits was either observed or not; −: ligand binding to the respective modulatory subunits was either observed or not. The note with it: 10 μM; construct CNGA2TM:A4. An excerpt: The channels to be studied were expressed in Xenopus oocytes. We first tested the subunit composition in our channels when coexpressing different combinations of subunits by single-channel recordings. For CNGA2:A4, CNGA2:B1b and CNGA2:A4:B1b channels we exclusively obtained the specific and easily distinguishable single-channel activity reported earlier when injecting respective amounts of RNA[7][13]. We therefore assumed that the channels formed had always the expected subunit composition. The specific binding of cyclic nucleotides and the activation of the CNG channels were measured in parallel by means of confocal patch-clamp fluorometry in excised patches, using fluorescent cyclic nucleotide derivatives. The method has been described previously.
The ligand binding was measured in macropatches by patch-clamp fluorometry[41][42] combined with confocal microscopy. […] Recordings were performed with an LSM 510 or 710 confocal microscope (Zeiss, Jena, Germany) and were triggered by the ISO3 software (MFK, Niedernhausen, Germany). To distinguish between the fluorescence of the unbound ligands from that of the bound ligands, a second dye, DY647 (Dyomics, Jena, Germany), was added to the bath solution. The 543-nm and 633-nm lines of a He-Ne laser were used to excite fcAMP/fcGMP and DY647, respectively. The method of confocal patch-clamp fluorometry has been described in detail previously.

For another test, the target named is T2, CNGA2RE:A4:B1b channels (Rattus norvegicus, UniProt A0A8I5ZN27+Q00195+Q64359, R538E).
T2 construct: expressed in transfected cells; host or cells: Xenopus laevis oocytes (cRNA injection), excised inside-out patches
As to the kind of experiment: Concentration-activation relationship, patch-clamp. It is filed as biochemical. The note with it: for EC50: Equation 2, +100 mV. As to the method:
In order to consider the combined apparent affinity of CNGA4 and CNGB1b, we measured the concentration-response relationship of CNGA2RE:A4:B1b channels (Fig. 3c; Table 1).
Patch-clamp experiments were performed using an Axopatch 200B amplifier (Molecular Devices LLC, CA, U.S.A.) in the inside-out configuration. The patch pipettes for recording of macroscopic currents were pulled from borosilicate glass tubing (outer diameter 2.0 mm, inner diameter 1.0 mm; Hilgenberg GmbH, Germany). The initial resistance was 0.7–1.3 MΩ. The patches were formed as pushed inside-out patches. […] Cyclic nucleotide concentration jumps were performed using a double-barreled glass pipette mounted on a piezo-driven device. Intracellular (bath) and extracellular (pipette) solutions contained (mM) 150 KCl, 1 EGTA, 5 Hepes, pH = 7.4 with KOH. […] Currents in the absence of the cyclic nucleotide were subtracted. All patches included in this study were first tested for channel expression in the presence of a saturating ligand concentration. Only patches with large current, i.e. a large number of channels, were included in our statistics. The currents were measured at +10 mV or, if mentioned, at +100 mV.
Fits of equations to data points were performed with the 8.1G® software (OriginLab Corporation, Northampton, U.S.A.). Concentration-activation relationships were obtained by relating the actual current amplitude, I, to the maximum current amplitude elicited by a saturating concentration of ligand, Imax, and plotting this ratio as function of the ligand concentration, x. The concentration-activation data were fitted using the Hill equation
For the concentration-activation relationships showing two components, the data points were fitted to the sum of two Hill equations according to
EC50,h, EC50,l, Hh, and Hl are the ligand concentration of half maximum current and the Hill coefficient for the high and low affinity component, respectively. a and (1-a) denote the contribution of the high and low affinity component, respectively.

The target of a further test is T3, CNGA2:A4:B1b channels (Rattus norvegicus, UniProt A0A8I5ZN27+Q00195+Q64359).
T3 construct: expressed in transfected cells; host or cells: Xenopus laevis oocytes (cRNA injection 2:1:1), excised inside-out patches
Put plainly: Activation and deactivation time courses after fast concentration jumps. The conditions noted are these: +10 mV, monoexponential fit. It is filed as biochemical. As for the experimental part: To characterize the contribution of each subunit to the kinetics of channel gating, we also studied activation and deactivation time courses for CNGA2:A4:B1b, CNGA2, CNGA2RE:A4RE:B1b and CNGA2RE:A4:B1b RE channels. Fast concentration jumps from zero to 10 μM cGMP and back to zero were applied with the help of a piezo-driven switch pipette. Activation (Fig. 4a) and deactivation (Fig. 4b) time courses were fitted with a single exponential or the sum of two exponential functions in case of the CNGA2RE:A4RE:B1b channel. The obtained time constants are shown in bar graphs below the traces. In case of the biexponential time courses a mean time constant was obtained according to equation (S1) (Supplementary Information). CNGA2RE:A4RE:B1b channel activation triggered by CNGB1b only is the slowest, followed by that of CNGA4 only in CNGA2RE:A4:B1bRE channels and homotetrameric CNGA2 channels.
Figure 4 Effects of the CNGB1b and CNGA4 subunit on the kinetics of channel activation and deactivation. […]
Patch-clamp experiments were performed using an Axopatch 200B amplifier (Molecular Devices LLC, CA, U.S.A.) in the inside-out configuration. […] The currents were measured at +10 mV or, if mentioned, at +100 mV.

In test [1] the test system is concatameric homotetrameric CNGA2 channels with three disabled subunits. Also on record: method as in PMID 26858151. The note with it: read-out: EC50 of one CNGA2 subunit; cited from earlier work.

Values joined by “and” are separate entries in the source; they are usually repeats but may differ in a detail not shown here. Equal entries are not always repeated. Where two headings read alike, the source gives them in different places.

T2 sequence (Q00195 whole entry R538E): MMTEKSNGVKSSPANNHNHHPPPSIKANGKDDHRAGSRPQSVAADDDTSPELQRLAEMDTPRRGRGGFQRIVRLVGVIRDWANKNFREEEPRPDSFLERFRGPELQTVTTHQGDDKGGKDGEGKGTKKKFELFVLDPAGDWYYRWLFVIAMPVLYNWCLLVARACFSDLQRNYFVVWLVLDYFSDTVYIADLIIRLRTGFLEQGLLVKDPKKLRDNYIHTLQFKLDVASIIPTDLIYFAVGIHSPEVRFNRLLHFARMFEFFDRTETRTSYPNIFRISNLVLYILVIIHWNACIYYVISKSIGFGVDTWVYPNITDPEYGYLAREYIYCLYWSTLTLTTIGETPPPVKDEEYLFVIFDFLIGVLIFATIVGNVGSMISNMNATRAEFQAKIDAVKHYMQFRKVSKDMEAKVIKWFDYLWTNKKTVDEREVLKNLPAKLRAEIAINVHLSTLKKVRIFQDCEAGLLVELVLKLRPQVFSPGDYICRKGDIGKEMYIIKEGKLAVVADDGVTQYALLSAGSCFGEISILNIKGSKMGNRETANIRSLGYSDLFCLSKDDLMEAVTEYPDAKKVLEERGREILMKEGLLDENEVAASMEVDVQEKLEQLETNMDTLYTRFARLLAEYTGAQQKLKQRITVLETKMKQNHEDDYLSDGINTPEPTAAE
T2 sequence (Q64359 whole entry): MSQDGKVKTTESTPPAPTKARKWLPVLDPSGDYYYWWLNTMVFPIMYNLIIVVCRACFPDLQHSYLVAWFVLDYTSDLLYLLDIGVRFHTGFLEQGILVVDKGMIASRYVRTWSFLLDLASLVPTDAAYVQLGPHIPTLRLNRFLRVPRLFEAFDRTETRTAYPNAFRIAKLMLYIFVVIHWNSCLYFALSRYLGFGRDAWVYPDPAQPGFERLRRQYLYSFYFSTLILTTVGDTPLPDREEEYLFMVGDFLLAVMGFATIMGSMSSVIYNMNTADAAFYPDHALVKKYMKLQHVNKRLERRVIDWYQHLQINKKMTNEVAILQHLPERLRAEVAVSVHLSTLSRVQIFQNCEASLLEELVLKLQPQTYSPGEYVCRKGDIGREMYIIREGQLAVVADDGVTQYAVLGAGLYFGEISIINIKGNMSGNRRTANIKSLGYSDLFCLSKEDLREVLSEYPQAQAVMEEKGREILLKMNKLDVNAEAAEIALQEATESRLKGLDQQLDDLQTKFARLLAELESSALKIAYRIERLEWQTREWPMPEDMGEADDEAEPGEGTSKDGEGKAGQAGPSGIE
T2 sequence (A0A8I5ZN27 1-858 isoform A0A8I5ZN27-2, stated change not applied): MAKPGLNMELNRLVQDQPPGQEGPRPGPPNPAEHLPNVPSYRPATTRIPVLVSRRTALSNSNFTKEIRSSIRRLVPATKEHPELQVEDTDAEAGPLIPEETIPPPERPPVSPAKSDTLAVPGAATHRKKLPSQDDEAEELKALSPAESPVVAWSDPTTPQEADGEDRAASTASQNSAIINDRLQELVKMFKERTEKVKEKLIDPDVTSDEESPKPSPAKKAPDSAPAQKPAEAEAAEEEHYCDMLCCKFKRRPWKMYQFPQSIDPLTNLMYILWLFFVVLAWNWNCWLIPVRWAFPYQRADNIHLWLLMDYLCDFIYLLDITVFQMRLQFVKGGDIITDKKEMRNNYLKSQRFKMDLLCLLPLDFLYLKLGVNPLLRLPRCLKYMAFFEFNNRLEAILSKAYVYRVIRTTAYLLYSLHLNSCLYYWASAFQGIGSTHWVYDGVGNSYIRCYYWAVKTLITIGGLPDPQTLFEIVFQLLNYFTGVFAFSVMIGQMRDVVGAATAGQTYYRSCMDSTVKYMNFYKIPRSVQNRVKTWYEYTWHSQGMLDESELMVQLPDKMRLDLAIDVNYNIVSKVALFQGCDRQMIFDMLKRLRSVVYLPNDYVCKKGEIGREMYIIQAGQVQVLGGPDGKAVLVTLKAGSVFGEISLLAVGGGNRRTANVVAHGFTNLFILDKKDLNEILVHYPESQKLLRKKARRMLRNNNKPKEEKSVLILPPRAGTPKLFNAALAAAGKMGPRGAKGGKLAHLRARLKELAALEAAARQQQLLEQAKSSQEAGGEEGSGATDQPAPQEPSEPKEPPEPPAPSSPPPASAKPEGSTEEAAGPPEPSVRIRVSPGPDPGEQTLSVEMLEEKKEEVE
T3 sequence (Q00195 whole entry): as the sequence (Q00195 whole entry R538E) above, with E538R counted along it
T3 sequence (Q64359 whole entry): as the sequence (Q64359 whole entry) above
T3 sequence (A0A8I5ZN27 1-858 isoform A0A8I5ZN27-2): as the sequence (A0A8I5ZN27 1-858 isoform A0A8I5ZN27-2, stated change not applied) above
T1 sequence (Q00195 whole entry T539M): as the sequence (Q00195 whole entry R538E) above, with E538R, T539M counted along it
T1 sequence (Q64359 whole entry): as the sequence (Q64359 whole entry) above

On to 8-[DY-547]-AET-cGMP [fcGMP], for which the “Ligand binding to CNGA4” value at CNGA2TM:A4 is “+”.
In the case of `Nc1nc2c(ncn2[C@@H]2O[C@@H]3COP(=O)(O)O[C@H]3[C@H]2O)c(=O)[nH]1` [cGMP], the Hh at CNGA2RE:A4:B1b channels (Hill coefficient of high affinity component, +100 mV) was 1.05 and 1.1. At CNGA2RE:A4:B1b channels (Hill coefficient of low affinity component, +100 mV), this compound had an H1 of 1.2. Moreover, the “contribution of the high-affinity component (a)” value on CNGA2RE:A4:B1b channels (combined contribution of CNGA4 and CNGB1b) is recorded as 89%. Also, the “a (contribution of the high affinity component)” value at CNGA2RE:A4:B1b channels (fraction, Equation 2) was 0.89. The EC50 on CNGA2RE:A4:B1b channels (high affinity component (CNGA4 and CNGB1b combined), read-out: EC50,h) is 5.7 µM; at CNGA2RE:A4:B1b channels (low affinity component, read-out: EC50,l), 733 µM; in test [1] it was 22.2 µM. Further, at CNGA2:A4:B1b channels (concentration jump from 10 μM back to zero), the deactivation time constant is recorded as ~ 120 ms. On CNGA2:A4:B1b channels (concentration jump from zero to 10 μM), the activation time constant is ~ 17 ms.

Values taken from publication PMC4942689, “Deciphering the function of the CNGB1b subunit in olfactory CNG channels” (Scientific Reports, 2016).
